Measured values reported in patent US11534441B2, “MAP4K1 inhibitors” (Blueprint Medicines Corporation, priority 2020, dated 2022).

Columns and labels:
expanded CD3+ T cells = test: T cell enhancement of cytokines: IL2 measurement (HTRF) in expanded CD3+ T cells stimulated with anti-CD3/anti-CD28; assay type: cell-based, human; settings: Homo sapiens, T-cell, IL-2 measurement
Method: T cells are isolated from whole blood of healthy donors by immunomagnetic negative selection following manufacture's protocol (StemCell Technologies, human T cell isolation kit). Purity of isolated cells is assessed by flow cytometry and yields 95-98% CD3^+ T cells. For expansion of T cells, 1×10^6 cells/well are plated in serum free cell expansion media (ThermoFisher) containing 30 U of recombinant human IL2 (R&D) and stimulated with 25 ul of CD3/CD28 beads (Invitrogen) in 24 well plates for 3-4 days. T cells are then expanded in 175 cm flasks and maintained at a cell density of 1 to 2.5×10^6 cells/ml days by addition of ⅔ of fresh media every 2-3 days. After 10-14 days, cells are frozen in BamBanker freezing media (Thermo) and stored in liquid nitrogen.
For IL2 measurement, expanded CD3^+ T cells are dispensed at 100K cells/well (cultured in X-VIVO 10 Serum-free media) and are stimulated with plate-bound anti-CD3 and soluble anti-CD28 in the presence of vehicle or compound of the disclosure at various concentrations for 24 h. As outlined in the manufacturer's protocol (Cisbio), 16 μL of conditioned media is transferred to a white 384-well low volume plate. Following a 24 h incubation with the anti-IL2 antibodies, the homogenous time resolved fluorescence (HTRF) is measured.

MAP4K1 (HPK1) = MAP4K1 (HPK1) (Homo sapiens (Human), UniProt Q92918); test: MAP4K1 (HPK1) biochemical enzymatic activity, electrophoretic mobility shift (EZReader 2), ATP at APPKM (26 μM)
Sequence of MAP4K1 (HPK1) (Q92918 whole entry): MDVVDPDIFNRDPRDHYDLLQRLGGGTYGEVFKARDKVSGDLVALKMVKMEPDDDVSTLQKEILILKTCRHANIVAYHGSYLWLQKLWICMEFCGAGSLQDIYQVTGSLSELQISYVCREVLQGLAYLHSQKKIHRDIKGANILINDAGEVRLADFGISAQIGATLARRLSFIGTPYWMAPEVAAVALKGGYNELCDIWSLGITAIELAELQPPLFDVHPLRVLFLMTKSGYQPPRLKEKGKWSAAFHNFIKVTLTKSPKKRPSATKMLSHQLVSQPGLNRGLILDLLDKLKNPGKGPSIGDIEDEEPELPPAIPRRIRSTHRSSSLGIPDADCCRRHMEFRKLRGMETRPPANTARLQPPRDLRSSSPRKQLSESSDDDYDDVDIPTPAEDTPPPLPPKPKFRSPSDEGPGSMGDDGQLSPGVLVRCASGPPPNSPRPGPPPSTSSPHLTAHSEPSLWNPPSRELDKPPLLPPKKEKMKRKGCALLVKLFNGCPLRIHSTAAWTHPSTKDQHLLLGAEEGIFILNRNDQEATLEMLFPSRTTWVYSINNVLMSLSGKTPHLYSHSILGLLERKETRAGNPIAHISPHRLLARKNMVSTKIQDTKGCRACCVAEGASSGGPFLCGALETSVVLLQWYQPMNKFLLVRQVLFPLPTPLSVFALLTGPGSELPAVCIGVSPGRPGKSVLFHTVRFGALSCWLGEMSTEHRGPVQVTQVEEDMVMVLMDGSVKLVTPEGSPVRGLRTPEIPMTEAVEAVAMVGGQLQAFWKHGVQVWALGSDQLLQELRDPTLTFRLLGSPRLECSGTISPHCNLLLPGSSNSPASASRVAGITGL
In short: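 Phosphorylated and unphosphorylated peptide were separated electrophoretically, and the product/substrate peak ratio served as readout. Reactions held 0.1-15 nM HPK1, 1.5 μM fluorescent peptide and 26 μM ATP (apparent Km) in pH 7.5 HEPES buffer with MgCl2 and DTT. Compounds were tested as 4-fold, 10-point dilutions in 1% DMSO for 60-180 min at 25° C, then quenched with EDTA.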

COc1ncc(C(C)(C)N)c2cc(Nc3ccc4c(n3)[C@@H](C)[C@H](C)OC4=O)ncc12 [Compound 37]
EC50 (expanded CD3+ T cells; class designation): < 35 nM
EC50 (expanded CD3+ T cells; numeric value): 1.9 nM
IC50 (MAP4K1 (HPK1); class designation): < 0.3 nM
IC50 (MAP4K1 (HPK1); numeric value): 0.14 nM

COc1ncc(C(C)(C)N)c2cc(Nc3ccc4c(n3)[C@H](C)[C@@H](C)OC4=O)ncc12 [Compound 38]
EC50 (expanded CD3+ T cells; class designation): < 35 nM
EC50 (expanded CD3+ T cells; numeric value): 5.8 nM
IC50 (MAP4K1 (HPK1); class designation): < 0.3 nM
IC50 (MAP4K1 (HPK1); numeric value): 0.2 nM

CCOc1ncc(C(C)(C)N)c2cc(Nc3ccc4c(n3)C(C)(C)OC4=O)ncc12 [Compound 45]
EC50 (expanded CD3+ T cells; class designation): > 55 nM
EC50 (expanded CD3+ T cells; numeric value): 70.3 nM
IC50 (MAP4K1 (HPK1); class designation): 0.31 to 1 nM
IC50 (MAP4K1 (HPK1); numeric value): 1.03 nM

COc1cnc(C(C)(C)N)c2cc(Nc3ccc4c(n3)CC(C)(C)OC4=O)ncc12 [Compound 46, 2-((5-(2-Aminopropan-2-yl)-8-methoxy-2,6-naphthyridin-3-yl)amino)-7,7-dimethyl-7,8-dihydro-5H-pyrano[4,3-b]pyridin-5-one]
EC50 (expanded CD3+ T cells; class designation): < 35 nM
EC50 (expanded CD3+ T cells; numeric value): 34.3 nM
IC50 (MAP4K1 (HPK1); class designation): 0.31 to 1 nM
IC50 (MAP4K1 (HPK1); numeric value): 0.94 nM

CNc1ncc(C(C)(C)N)c2cc(Nc3cnc(C#N)c(N4CCC[C@@H]4C)n3)ncc12 [Compound 48]
EC50 (expanded CD3+ T cells; class designation): > 55 nM
EC50 (expanded CD3+ T cells; numeric value): 136 nM
IC50 (MAP4K1 (HPK1); class designation): 1.1 to 10 nM
IC50 (MAP4K1 (HPK1); numeric value): 1.72 nM

CCNc1ncc(C(C)(C)N)c2cc(Nc3ccc4c(n3)CC(C)(C)OC4=O)ncc12 [Compound 53]
EC50 (expanded CD3+ T cells; class designation): < 35 nM
EC50 (expanded CD3+ T cells; numeric value): 17.2 nM
IC50 (MAP4K1 (HPK1); class designation): 0.31 to 1 nM
IC50 (MAP4K1 (HPK1); numeric value): 0.36 nM

CCOc1ncc(C(C)(C)N)c2cc(Nc3ccc4c(n3)CC(C)(C)OC4=O)ncc12 [Compound 54]
EC50 (expanded CD3+ T cells; class designation): < 35 nM
EC50 (expanded CD3+ T cells; numeric value): 9.3 nM
IC50 (MAP4K1 (HPK1); class designation): < 0.3 nM
IC50 (MAP4K1 (HPK1); numeric value): 0.25 nM

COc1ncc(C(C)(C)N)c2cc(Nc3ccc4c(n3)[C@H](C)C(C)(C)OC4=O)ncc12 [Compound 55]
EC50 (expanded CD3+ T cells; class designation): < 35 nM
EC50 (expanded CD3+ T cells; numeric value): 11.6 nM
IC50 (MAP4K1 (HPK1); class designation): < 0.3 nM
IC50 (MAP4K1 (HPK1); numeric value): 0.18 nM

COc1ncc(C(C)(C)N)c2cc(Nc3ccc4c(n3)[C@@H](C)C(C)(C)OC4=O)ncc12 [Compound 56]
EC50 (expanded CD3+ T cells; class designation): < 35 nM
EC50 (expanded CD3+ T cells; numeric value): 6.6 nM
IC50 (MAP4K1 (HPK1); class designation): < 0.3 nM
IC50 (MAP4K1 (HPK1); numeric value): 0.1 nM

CCOc1ncc(C(C)(C)N)c2cc(Nc3ccc4c(n3)[C@@H](C)[C@H](C)OC4=O)ncc12 [Compound 57]
EC50 (expanded CD3+ T cells; class designation): < 35 nM
EC50 (expanded CD3+ T cells; numeric value): 5.1 nM
IC50 (MAP4K1 (HPK1); class designation): < 0.3 nM
IC50 (MAP4K1 (HPK1); numeric value): 0.16 nM

CCOc1ncc(C(C)(C)N)c2cc(Nc3ccc4c(n3)[C@H](C)[C@@H](C)OC4=O)ncc12 [Compound 58]
EC50 (expanded CD3+ T cells; class designation): < 35 nM
EC50 (expanded CD3+ T cells; numeric value): 20.4 nM
IC50 (MAP4K1 (HPK1); class designation): 0.31 to 1 nM
IC50 (MAP4K1 (HPK1); numeric value): 0.39 nM

CC1(C)Cc2nc(Nc3cc4c(C(C)(C)N)cnc(OC5CC5)c4cn3)ccc2C(=O)O1 [Compound 64]
EC50 (expanded CD3+ T cells; class designation): 35.1 to 45 nM
EC50 (expanded CD3+ T cells; numeric value): 42.9 nM
IC50 (MAP4K1 (HPK1); class designation): 0.31 to 1 nM
IC50 (MAP4K1 (HPK1); numeric value): 0.44 nM

C[C@@H]1OC(=O)c2ccc(Nc3cc4c(C(C)(C)N)cnc(OC5CC5)c4cn3)nc2[C@H]1C [Compound 66, (7S, 8R)-2-((5-(2-aminopropan-2-yl)-8-cyclopropoxy-2,7-naphthyridin-3-yl)amino)-7,8-dimethyl-7,8-dihydro-5H-pyrano[4,3-b]pyridin-5-one]
EC50 (expanded CD3+ T cells; class designation): < 35 nM
EC50 (expanded CD3+ T cells; numeric value): 8.1 nM
IC50 (MAP4K1 (HPK1); class designation): < 0.3 nM
IC50 (MAP4K1 (HPK1); numeric value): 0.18 nM

CCOc1ncc(C(C)(C)N)c2cc(Nc3ccc4c(n3)[C@@H](C)C(C)(C)OC4=O)ncc12 [Compound 67]
EC50 (expanded CD3+ T cells; class designation): < 35 nM
EC50 (expanded CD3+ T cells; numeric value): 6.2 nM
IC50 (MAP4K1 (HPK1); class designation): < 0.3 nM
IC50 (MAP4K1 (HPK1); numeric value): 0.12 nM

CCOc1ncc(C(C)(C)N)c2cc(Nc3ccc4c(n3)[C@H](C)C(C)(C)OC4=O)ncc12 [Compound 68]
EC50 (expanded CD3+ T cells; class designation): < 35 nM
EC50 (expanded CD3+ T cells; numeric value): 29.5 nM
IC50 (MAP4K1 (HPK1); class designation): < 0.3 nM
IC50 (MAP4K1 (HPK1); numeric value): 0.27 nM

CC(C)Oc1ncc(C(C)(C)N)c2cc(Nc3ccc4c(n3)CC(C)(C)OC4=O)ncc12 [Compound 69]
EC50 (expanded CD3+ T cells; class designation): 45.1 to 55 nM
EC50 (expanded CD3+ T cells; numeric value): 52.8 nM
IC50 (MAP4K1 (HPK1); class designation): 0.31 to 1 nM
IC50 (MAP4K1 (HPK1); numeric value): 0.88 nM

C[C@H]1c2nc(Nc3cc4c(C(C)(C)N)cnc(OC5CC5)c4cn3)ccc2C(=O)OC1(C)C [Compound 70]
EC50 (expanded CD3+ T cells; class designation): < 35 nM
EC50 (expanded CD3+ T cells; numeric value): 20.6 nM
IC50 (MAP4K1 (HPK1); class designation): 0.31 to 1 nM
IC50 (MAP4K1 (HPK1); numeric value): 0.35 nM

C[C@@H]1c2nc(Nc3cc4c(C(C)(C)N)cnc(OC5CC5)c4cn3)ccc2C(=O)OC1(C)C [Compound 71]
EC50 (expanded CD3+ T cells; class designation): < 35 nM
EC50 (expanded CD3+ T cells; numeric value): 7.9 nM
IC50 (MAP4K1 (HPK1); class designation): < 0.3 nM
IC50 (MAP4K1 (HPK1); numeric value): 0.11 nM
